# Measurements reported in US10392412B2, “Platinum anticancer agents” (THE REGENTS OF THE UNIVERSITY OF CALIFORNIA, priority 2015, dated 2019).
# Like-named read-outs stand apart in the source and are kept apart here. Marks after values point to notes of the source that are not given here.
# How the values were obtained:
# [1] = Maximum tolerated dose study: clinical chemistry evaluation (blood cell parameters, Table 6)
# Description: (§1) The mice used in MTD were given standard chow devoid of added folic acid (low folate diet) (See, Leamon C P et al., J. Pharmacol. Exp. Ther. 327: 918-925). […] Therefore we also designed a MTD study in mice treated with low folate diet. Food consumption on the day before injection (Day −1) was recorded and then it was monitored every other day. […] Blood for clinical chemistry was collected if possible. Liver, kidney and bone marrow were collected. One side of each tissue (except bone marrow) will be fixed in 4-10% formalin for future histology analysis, and the rest of tissue will be cut into pieces, snap frozen, and stored at −80° C. until analysis. Blood samples for clinical chemistry were centrifuged at 8000 rpm for 10 min at 4° C. within 1 hour of collection. Plasma was collected into 1.5 mL eppendorf tubes and stored at −80° C. until analysis. The measured parameters were alanine transaminase (ALT), aspartate transaminase (AST), alkaline phosphatase (ALP), total bilirubin, glucose, blood urea nitrogen (BUN), creatinine, and electrolytes. All experiments were housed in a virus-free, temperature controlled facility on a 12-h light-dark cycle.
# [2] = Maximum tolerated dose study: blood chemistry test (Table 7)
# Description: as §1
# T98G cells = test: Cytotoxicity CellTiter-Glo; format: cell-based, human
# NCI-H460 cells = conditions: NCI-H460, Non-Small Cell Lung
# Source text: (§2) The methods that were used by the DTP were described on the DTP website: (https://dtp.nci.nih.gov/discovery_development/nci-60/methodology.htm).
# HCT-15 cells = conditions: HCT-15, Colon
# Source text: as §2
# MOLT-4 cells = conditions: MOLT-4, Leukemia
# Source text: as §2
# CCRF-CEM cells = conditions: Leukemia
# Source text: as §2
# SF-539 cells = conditions: SF-539, Central Nervous System
# Source text: as §2
# MDA-MB-231/ATCC cells = conditions: Breast
# Source text: as §2
# U251 cells = conditions: U251, Central Nervous System
# Source text: as §2
# NCI-H522 cells = conditions: NCI-H522, Non-Small Cell Lung
# Source text: as §2
# SF-295 cells = conditions: SF-295, Central Nervous System
# Source text: as §2
# SN12C cells = conditions: Renal
# Source text: as §2
# EKVX cells = conditions: Non-Small Cell Lung
# Source text: as §2
# LOX IMVI cells = conditions: Melanoma
# Source text: as §2
# SK-OV-3 cells = conditions: SK-OV-3, Ovarian
# Source text: as §2
# SK-MEL-28 cells = conditions: SK-MEL-28, Melanoma
# Source text: as §2
# OVCAR-3 cells = conditions: OVCAR-3, Ovarian
# Source text: as §2
# SF-268 cells = conditions: SF-268, Central Nervous System
# Source text: as §2
# MDA-MB-468 cells = conditions: MDA-MB-468, Breast
# Source text: as §2
# SK-MEL-2 cells = conditions: SK-MEL-2, Melanoma
# Source text: as §2
# [3] = 7.5 mpk i.v. once a week, listed as AT-69
substance,measurement,setting,value
[Pt(DMSO)methotrexate(Cl)] [SM-69],RDWa,[1]; 2.5 mpk i.v. once a week,30.35
same,granulocytes (GRAN %),[1]; 2.5 mpk i.v. once a week,31.88%
same,granulocytes (GRAN),[1]; 2.5 mpk i.v. once a week,3.55
same,hematocrit (HCT),[1]; 2.5 mpk i.v. once a week,46.20
same,hemoglobin (HGB),[1]; 2.5 mpk i.v. once a week,16.20
same,lymphocytes (LYM %),[1]; 2.5 mpk i.v. once a week,60.70%
same,lymphocytes (LYM),[1]; 2.5 mpk i.v. once a week,6.65
same,mean corpuscular hemoglobin (MCH),[1]; 2.5 mpk i.v. once a week,15.65
same,mean corpuscular hemoglobin concentration (MCHC),[1]; 2.5 mpk i.v. once a week,35.08
same,mean corpuscular volume (MCV),[1]; 2.5 mpk i.v. once a week,44.68
same,mean platelet volume (MPV),[1]; 2.5 mpk i.v. once a week,6.68
same,monocytes (MONO %),[1]; 2.5 mpk i.v. once a week,7.43%
same,monocytes (MONO),[1]; 2.5 mpk i.v. once a week,0.83
same,platelet count (PLT),[1]; 2.5 mpk i.v. once a week,193.00
same,red blood cell count (RBC),[1]; 2.5 mpk i.v. once a week,10.34
same,red cell distribution width (RDW %),[1]; 2.5 mpk i.v. once a week,21.53%
same,white blood cell count (WBC),[1]; 2.5 mpk i.v. once a week,11.03
same,RDWa,[1]; 5 mpk i.v. once a week,30.10
same,granulocytes (GRAN %),[1]; 5 mpk i.v. once a week,33.28%
same,granulocytes (GRAN),[1]; 5 mpk i.v. once a week,3.55
same,hematocrit (HCT),[1]; 5 mpk i.v. once a week,47.65
same,hemoglobin (HGB),[1]; 5 mpk i.v. once a week,17.08
same,lymphocytes (LYM %),[1]; 5 mpk i.v. once a week,58.70%
same,lymphocytes (LYM),[1]; 5 mpk i.v. once a week,6.38
same,mean corpuscular hemoglobin (MCH),[1]; 5 mpk i.v. once a week,15.73
same,mean corpuscular hemoglobin concentration (MCHC),[1]; 5 mpk i.v. once a week,35.83
same,mean corpuscular volume (MCV),[1]; 5 mpk i.v. once a week,43.95
same,mean platelet volume (MPV),[1]; 5 mpk i.v. once a week,6.83
same,monocytes (MONO %),[1]; 5 mpk i.v. once a week,8.03%
same,monocytes (MONO),[1]; 5 mpk i.v. once a week,0.88
same,platelet count (PLT),[1]; 5 mpk i.v. once a week,182.25
same,red blood cell count (RBC),[1]; 5 mpk i.v. once a week,10.86
same,red cell distribution width (RDW %),[1]; 5 mpk i.v. once a week,21.93%
same,white blood cell count (WBC),[1]; 5 mpk i.v. once a week,10.80
same,RDWa,[1]; 7.5 mpk i.v. once a week,29.67
same,granulocytes (GRAN %),[1]; 7.5 mpk i.v. once a week,36.03%
same,granulocytes (GRAN),[1]; 7.5 mpk i.v. once a week,4.40
same,hematocrit (HCT),[1]; 7.5 mpk i.v. once a week,45.47
same,hemoglobin (HGB),[1]; 7.5 mpk i.v. once a week,16.23
same,lymphocytes (LYM %),[1]; 7.5 mpk i.v. once a week,56.53%
same,lymphocytes (LYM),[1]; 7.5 mpk i.v. once a week,7.07
same,mean corpuscular hemoglobin (MCH),[1]; 7.5 mpk i.v. once a week,15.63
same,mean corpuscular hemoglobin concentration (MCHC),[1]; 7.5 mpk i.v. once a week,35.73
same,mean corpuscular volume (MCV),[1]; 7.5 mpk i.v. once a week,43.80
same,mean platelet volume (MPV),[1]; 7.5 mpk i.v. once a week,6.40
same,monocytes (MONO %),[1]; 7.5 mpk i.v. once a week,7.43%
same,monocytes (MONO),[1]; 7.5 mpk i.v. once a week,0.93
same,platelet count (PLT),[1]; 7.5 mpk i.v. once a week,171.33
same,red blood cell count (RBC),[1]; 7.5 mpk i.v. once a week,10.38
same,red cell distribution width (RDW %),[1]; 7.5 mpk i.v. once a week,21.87%
same,white blood cell count (WBC),[1]; 7.5 mpk i.v. once a week,12.40
same,Glucose,[2]; 2.5 mpk i.v. once a week,80.25
same,Na:K,[2]; 2.5 mpk i.v. once a week,33.50
same,"alanine transaminase, ALT (GPT)",[2]; 2.5 mpk i.v. once a week,52.75
same,alkaline phosphatase (ALP),[2]; 2.5 mpk i.v. once a week,99.00
same,"aspartate transaminase, AST (GOT)",[2]; 2.5 mpk i.v. once a week,252.25
same,blood urea nitrogen (BUN),[2]; 2.5 mpk i.v. once a week,41.73
same,creatinine (CRE),[2]; 2.5 mpk i.v. once a week,<0.2
same,total bilirubin (TBIL),[2]; 2.5 mpk i.v. once a week,0.15
same,Glucose,[2]; 5 mpk i.v. once a week,73.00
same,Na:K,[2]; 5 mpk i.v. once a week,33.25
same,"alanine transaminase, ALT (GPT)",[2]; 5 mpk i.v. once a week,83.75
same,alkaline phosphatase (ALP),[2]; 5 mpk i.v. once a week,117.25
same,"aspartate transaminase, AST (GOT)",[2]; 5 mpk i.v. once a week,447.25
same,blood urea nitrogen (BUN),[2]; 5 mpk i.v. once a week,65.63
same,creatinine (CRE),[2]; 5 mpk i.v. once a week,<0.2
same,total bilirubin (TBIL),[2]; 5 mpk i.v. once a week,0.53
same,Glucose,[2]; 7.5 mpk i.v. once a week,40.67*
same,Na:K,[2]; 7.5 mpk i.v. once a week,31.67
same,"alanine transaminase, ALT (GPT)",[2]; 7.5 mpk i.v. once a week,258.33*
same,alkaline phosphatase (ALP),[2]; 7.5 mpk i.v. once a week,140.33*
same,"aspartate transaminase, AST (GOT)",[2]; 7.5 mpk i.v. once a week,573.67
same,blood urea nitrogen (BUN),[2]; 7.5 mpk i.v. once a week,did not observe a significant difference
same,creatinine (CRE),[2]; 7.5 mpk i.v. once a week,did not observe a significant difference
same,total bilirubin (TBIL),[2]; 7.5 mpk i.v. once a week,0.40
same,blood urea nitrogen (BUN),[2]; [3],65.40
same,creatinine (CRE),[2]; [3],<0.2
same,IC50,"T98G cells; read-out: IC50 (50% growth inhibition), Brain, 72 hours",40.8 ± 42.6 µM
same,IC50,"T98G cells; read-out: IC50 ± S.D. (50% growth inhibition), Brain - High grade, + 1 mM Folic Acid",1.9 ± 0.03 µM
same,IC50,"T98G cells; read-out: IC50 ± S.D. (50% growth inhibition), Brain - High grade, two independent experiments",0.09 ± 0.007 µM
same,Log10GI50,NCI-H460 cells,−5.34 M
same,Log10GI50,HCT-15 cells,−5.04 M
same,Log10GI50,MOLT-4 cells,−5.30 M
same,Log10GI50,CCRF-CEM cells,−5.39 M
same,Log10GI50,SF-539 cells,−5.19 M
same,Log10GI50,MDA-MB-231/ATCC cells,−4.00 M
same,Log10GI50,U251 cells,−5.43 M
same,Log10GI50,NCI-H522 cells,−4.74 M
same,Log10GI50,SF-295 cells,−5.46 M
same,Log10GI50,SN12C cells,−5.29 M
same,Log10GI50,EKVX cells,−4.16 M
same,Log10GI50,LOX IMVI cells,−5.77 M
same,Log10GI50,SK-OV-3 cells,−4.00 M
same,Log10GI50,SK-MEL-28 cells,−4.00 M
same,Log10GI50,OVCAR-3 cells,−4.15 M
same,Log10GI50,SF-268 cells,−5.04 M
same,Log10GI50,MDA-MB-468 cells,−5.08 M
same,Log10GI50,SK-MEL-2 cells,−4.00 M
